Results from US6046231A, “Use of 4'-bromoflavone in a cancer chemopreventative composition and method” (The Board of Trustees of the University of Illinois, priority 1999, dated 2000).

What was measured:
[1] = tested on: HepG2 cells (B[α]P-DNA adducts); assay: Binding of metabolically activated [3H]B[α]P to DNA of cultured HepG2 cells; format: cell-based; details: Homo sapiens, read-out: IC50, formation of B[α]P-DNA adducts, HepG2
Procedure: Effect of 4'-BF on the Binding of Metabolically Activated [^3 H]B[α]P to DNA of Cultured Cells. HepG2 cells or MCF-7 cells were plated at a density of 1×10^6 cells/dish in 6 cm Petri dishes and allowed to incubate for 18 hours. Fresh media containing test samples were added to the cells 2 hours prior to the addition of 1 μM [^3 H]B[α]P (10 Ci/mmol) The test compound and tritiated carcinogen then were incubated for 6 hours. Following incubation, genomic DNA was extracted by the method described by Sharma et al., with minor modifications. Briefly, the cells were washed three times with PBS and harvested by incubation with 0.5 ml of proteinase K (100 μg/ml) in 0.2 M Tris-0.1 M EDTA (pH 8.5) for 10 min at 37° C. The cells were gently scraped from the dishes, transferred to 50 μl of 10% SDS solution, and incubated for 3 hours at 55° C. […] An aliquot of harvested DNA was used for measuring the relative absorbencies at 260 and 280 nm (A2360 nm/A2380 nm=1.7-1.9), and the DNA content was determined by absorbance at 260 nm (1 A2360 nm unit=50 μg). The remaining sample was used for the determination of radioactivity. All experiments were performed in triplicate; percentage inhibition of carcinogen-DNA binding mediated by test samples was calculated as follows: % inhibition=[1-(dpm per μg DNA test cells/dpm per μg DNA control cells)]×100.

[2] = tested on: pDTD-1097CAT construct (QR gene 5'-region), HepG2 cells; assay: CAT expression in HepG2 cells transfected with pDTD-1097CAT; format: cell-based, human cells; rat QR gene; details: 10 μM, 48 h; p<0.0001
Procedure: Transcient Transfection Gene Expression Assay. Cultured HepG2 human hepatoma cells were transfected with three plasmid constructs (PDTD-1697CAT, XRE-CAT, ARE-CAT) containing various portions of the 5'-region of the QR gene fused to the CAT gene using the calcium phosphate precipitation method (J. Sambrook et al., Molecular cloning: A Laboratory Handbook, Ed. Chris Nolan, CHS Laboratory Press, 1989). After 4 hours of transfection, the cells were treated with 10% glycerol for 3 minutes and rinsed with PBS and switched to MEM, containing 100 units/ml penicillin G sodium, 100 units/ml streptomycin sulfate, nonessential amino acids, and 1 mM sodium pyruvate (Life Technologies Inc.) supplemented with 10% fetal bovine serum for 12-16 hours recovery. Then, test agents were added to the cells. After 48 hours of treatment with the test agents, cells were harvested with lysis buffer (Boehringer Mannheim Biochemical) and CAT protein expressions were assessed using a CAT ELISA kit (Boehringer Mannheim Biochemical). […] All data were expressed as mean +/- SD. […]
In particular, FIG. 1 illustrates quantitation of CAT expression in HepG2 cells transfected with QR-CAT constructs. […] CAT expression (ng CAT/mg protein) was determined using a CAT ELISA, and the ratio of CAT expression between treated and control cells was calculated (ratio=treated/control).

O=c1cc(-c2ccc(Br)cc2)oc2ccccc12 [4'-Bromoflavone]
IC50 [1]: ~3.1 µM
CAT expression, pDTD-1097CAT [2]: significantly (p<0.0001) induced
